Molecular target: T1, MAPK10 (JNK3) (Homo sapiens, UniProt P53779)
T1 construct: purchased Thermo Fisher Scientific (Life Technologies) SelectScreen
Experiment: SelectScreen Z'LYTE
Type: biochemical
Conditions: ATP 100 µM
Method in brief: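 SelectScreen broad panel; activity (Z'LYTE, Adapta) plus binding formats. ATP: Km app for CSF1R Z'LYTE; 10 for CAMK1 Adapta. Readout = % per kinase.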

T1 sequence (P53779 whole entry): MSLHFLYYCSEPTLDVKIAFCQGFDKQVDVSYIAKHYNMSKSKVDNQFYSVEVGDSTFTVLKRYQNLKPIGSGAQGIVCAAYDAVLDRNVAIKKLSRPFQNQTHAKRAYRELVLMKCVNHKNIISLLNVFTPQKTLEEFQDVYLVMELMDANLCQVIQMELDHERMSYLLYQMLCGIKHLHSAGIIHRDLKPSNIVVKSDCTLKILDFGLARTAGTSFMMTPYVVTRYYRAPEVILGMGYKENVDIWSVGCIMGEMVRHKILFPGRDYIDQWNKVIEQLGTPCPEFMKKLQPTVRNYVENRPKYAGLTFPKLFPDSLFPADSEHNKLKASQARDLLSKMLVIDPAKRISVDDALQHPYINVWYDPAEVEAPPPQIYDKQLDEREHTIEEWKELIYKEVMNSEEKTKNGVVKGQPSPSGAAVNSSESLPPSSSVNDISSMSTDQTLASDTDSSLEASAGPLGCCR

## CN(C(=O)CN1CCOCC1)c1ccc2sc3c(-c4cccc5c(=O)cc(N6CC7CCC(C6)O7)oc45)cccc3c2c1 [NU5455]
  inhibition at 1 µM: 9%

Source: article PMC6934184, “Selective DNA-PKcs inhibition extends the therapeutic index of localized radiotherapy and chemotherapy” (The Journal of Clinical Investigation, 2019)
